Test results: patent US20240208992A1, “MACROCYCLES AS CFTR MODULATORS” (Idorsia Pharmaceuticals Ltd, priority 2021, published 2024)

Target: human F508del-CFTR (Homo sapiens, UniProt P13569, DEL508-508)
Assay: F508del-CFTR cell surface expression (corrector activity), DiscoveRx ß-galactosidase complementation chemiluminescence assay in recombinant U2OS cell line;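 also: U2OS cells co-expressing ProLink-tagged F508del-CFTR and a membrane-anchored enzyme acceptor, where more surface CFTR restores β-galactosidase activity measured by chemiluminescence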
Conditions: U2OS cell line, 16h compound incubation; for EC50: EC50, F508del-CFTR cell surface expression, geomean values; for Emax: U2OS, in relation to the Emax of the corrector lumacaftor (=100%), arithmetic mean values

Sequence of human F508del-CFTR (P13569 with tags, fused parts or gaps DEL508-508): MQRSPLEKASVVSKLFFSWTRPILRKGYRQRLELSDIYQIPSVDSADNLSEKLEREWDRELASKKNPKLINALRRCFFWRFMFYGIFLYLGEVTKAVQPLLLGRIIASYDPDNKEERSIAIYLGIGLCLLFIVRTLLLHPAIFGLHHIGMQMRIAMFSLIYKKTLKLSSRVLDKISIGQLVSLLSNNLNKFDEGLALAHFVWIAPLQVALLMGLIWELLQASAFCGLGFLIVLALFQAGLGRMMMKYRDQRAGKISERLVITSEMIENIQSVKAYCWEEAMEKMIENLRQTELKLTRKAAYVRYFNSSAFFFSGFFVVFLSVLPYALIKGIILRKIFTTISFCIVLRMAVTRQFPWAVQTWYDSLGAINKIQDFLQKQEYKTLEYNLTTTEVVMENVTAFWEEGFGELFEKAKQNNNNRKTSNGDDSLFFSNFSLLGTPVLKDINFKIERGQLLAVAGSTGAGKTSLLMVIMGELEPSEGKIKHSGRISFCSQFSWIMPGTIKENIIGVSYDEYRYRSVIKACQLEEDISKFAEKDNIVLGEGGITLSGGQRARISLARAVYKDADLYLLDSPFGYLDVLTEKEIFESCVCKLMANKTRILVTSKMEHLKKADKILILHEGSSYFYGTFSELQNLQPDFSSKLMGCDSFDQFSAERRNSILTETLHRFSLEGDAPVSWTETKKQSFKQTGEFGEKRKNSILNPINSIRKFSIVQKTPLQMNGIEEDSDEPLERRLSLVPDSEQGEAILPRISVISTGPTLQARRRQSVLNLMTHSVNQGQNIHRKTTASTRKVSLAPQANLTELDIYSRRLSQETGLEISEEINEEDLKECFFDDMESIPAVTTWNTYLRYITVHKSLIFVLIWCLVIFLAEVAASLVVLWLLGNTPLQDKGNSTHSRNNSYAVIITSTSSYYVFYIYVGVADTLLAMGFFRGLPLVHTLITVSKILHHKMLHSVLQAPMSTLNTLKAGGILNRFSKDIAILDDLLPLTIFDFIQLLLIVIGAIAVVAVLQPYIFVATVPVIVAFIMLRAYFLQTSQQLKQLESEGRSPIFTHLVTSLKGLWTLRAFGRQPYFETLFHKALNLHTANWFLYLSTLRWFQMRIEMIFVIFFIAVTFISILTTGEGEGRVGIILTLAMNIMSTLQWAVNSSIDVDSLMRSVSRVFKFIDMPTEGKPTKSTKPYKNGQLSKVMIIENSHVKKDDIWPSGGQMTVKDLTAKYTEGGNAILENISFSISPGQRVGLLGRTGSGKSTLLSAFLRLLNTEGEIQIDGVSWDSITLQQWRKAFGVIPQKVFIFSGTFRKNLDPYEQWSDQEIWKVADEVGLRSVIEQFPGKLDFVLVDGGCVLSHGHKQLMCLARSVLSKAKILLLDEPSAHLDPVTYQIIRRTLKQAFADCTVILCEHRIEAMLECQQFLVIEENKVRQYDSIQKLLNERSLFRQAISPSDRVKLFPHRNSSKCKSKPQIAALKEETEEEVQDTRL

SMILES | EC50 [nM] | Emax [%]
[2H]C([2H])([2H])Oc1cccc2c1C(=O)N[C@H](C(=O)NCCc1ccc3c(c1)OCO3)CC(=O)N(C)[C@@H](CC(C)C)C(=O)N(CCC1CCCCC1)CC(=O)N[C@H](Cc1ccccc1)CO2 [Example 242, (3R,9S,13S)-N-(2-(benzo[d][1,3]dioxol-5-yl)ethyl)-3-benzyl-7-(2-cyclohexylethyl)-9-isobutyl-16-(methoxy-d3)-10-methyl-5,8,11,15-tetraoxo-2,3,4,5,6,7,8,9,10,11,12,13,14,15-tetradecahydrobenzo[p][1]oxa[4,7,10,14]tetraazacycloheptadecine-13-carboxamide] | 177 | 232
[2H]C([2H])([2H])Oc1cccc2c1C(=O)N[C@H](C(=O)NCCc1cccc(OC)c1)CC(=O)N(C)[C@@H](CC(C)C)C(=O)N(CCC1CCCCC1)CC(=O)N[C@H](Cc1ccccc1)CO2 [Example 243, (3R,9S,13S)-3-benzyl-7-(2-cyclohexylethyl)-9-isobutyl-16-(methoxy-d3)-N-(3-methoxyphenethyl)-10-methyl-5,8,11,15-tetraoxo-2,3,4,5,6,7,8,9,10,11,12,13,14,15-tetradecahydrobenzo[p][1]oxa[4,7,10,14]tetraazacycloheptadecine-13-carboxamide] | 181 | 232
[2H]C([2H])([2H])Oc1cccc(CCNC(=O)[C@@H]2CC(=O)N(C)[C@@H](CC(C)C)C(=O)N(CCC3CCCCC3)CC(=O)N[C@H](Cc3ccccc3)COc3cccc(OC([2H])([2H])[2H])c3C(=O)N2)c1 [Example 244, (3R,9S,13S)-3-benzyl-7-(2-cyclohexylethyl)-9-isobutyl-16-(methoxy-d3)-N-(3-(methoxy-d3)phenethyl)-10-methyl-5,8,11,15-tetraoxo-2,3,4,5,6,7,8,9,10,11,12,13,14,15-tetradecahydrobenzo[p][1]oxa[4,7,10,14]tetraazacycloheptadecine-13-carboxamide] | 177 | 239
COc1ccc2c(c1)C(=O)N[C@H](C(=O)NCCc1ccc3c(c1)OCCC3)CC(=O)N(C)[C@@H](CC(C)C)C(=O)N(C)CC(=O)N[C@H](Cc1ccccc1)CO2 [Example 245, (3R,9S,13S)-3-benzyl-N-(2-(chroman-7-yl)ethyl)-9-isobutyl-17-methoxy-7,10-dimethyl-5,8,11,15-tetraoxo-2,3,4,5,6,7,8,9,10,11,12,13,14,15-tetradecahydrobenzo[p][1]oxa[4,7,10,14]tetraazacycloheptadecine-13-carboxamide] | 260 | 174
Cc1cccc2c1C(=O)N[C@H](C(=O)NCCc1ccc3c(c1)OCO3)CC(=O)N(C)[C@@H](CC(C)C)C(=O)N(CCC1CCCCC1)CC(=O)N[C@H](Cc1ccccc1)CO2 [Example 246, (3R,9S,13S)-N-(2-(benzo[d][1,3]dioxol-5-yl)ethyl)-3-benzyl-7-(2-cyclohexylethyl)-9-isobutyl-10,16-dimethyl-5,8,11,15-tetraoxo-2,3,4,5,6,7,8,9,10,11,12,13,14,15-tetradecahydrobenzo[p][1]oxa[4,7,10,14]tetraazacycloheptadecine-13-carboxamide] | 140 | 105
COc1cccc(CCNC(=O)[C@@H]2CC(=O)N(C)[C@@H](CC(C)C)C(=O)N(CCC3CCCCC3)CC(=O)N[C@H](Cc3ccccc3)COc3cccc(C)c3C(=O)N2)c1 [Example 247, (3R,9S,13S)-3-benzyl-7-(2-cyclohexylethyl)-9-isobutyl-N-(3-methoxyphenethyl)-10,16-dimethyl-5,8,11,15-tetraoxo-2,3,4,5,6,7,8,9,10,11,12,13,14,15-tetradecahydrobenzo[p][1]oxa[4,7,10,14]tetraazacycloheptadecine-13-carboxamide] | 146 | 111
COc1ccc2c(c1)C(=O)N[C@H](C(=O)NCCc1ccc3c(c1)OCO3)CC(=O)N(C)[C@@H](CC(C)C)C(=O)N(CCC1CCCCC1)CC(=O)N[C@H](Cc1ccccc1)CO2 [Example 248, (3R,9S,13S)-N-(2-(benzo[d][1,3]dioxol-5-yl)ethyl)-3-benzyl-7-(2-cyclohexylethyl)-9-isobutyl-17-methoxy-10-methyl-5,8,11,15-tetraoxo-2,3,4,5,6,7,8,9,10,11,12,13,14,15-tetradecahydrobenzo[p][1]oxa[4,7,10,14]tetraazacycloheptadecine-13-carboxamide] | 106 | 191
COc1cccc(CCNC(=O)[C@@H]2CC(=O)N(C)[C@@H](CC(C)C)C(=O)N(CCC3CCCCC3)CC(=O)N[C@H](Cc3ccccc3)COc3ccc(OC)cc3C(=O)N2)c1 [Example 249, (3R,9S,13S)-3-benzyl-7-(2-cyclohexylethyl)-9-isobutyl-17-methoxy-N-(3-methoxyphenethyl)-10-methyl-5,8,11,15-tetraoxo-2,3,4,5,6,7,8,9,10,11,12,13,14,15-tetradecahydrobenzo[p][1]oxa[4,7,10,14]tetraazacycloheptadecine-13-carboxamide] | 116 | 175
CC(C)C[C@H]1C(=O)N(CCC2CCCCC2)CC(=O)N[C@H](Cc2ccccc2)COc2cc3ccccc3cc2C(=O)N[C@H](C(=O)NCCc2ccc3c(c2)OCO3)CC(=O)N1C [Example 250, (3R,9S,13S)-N-(2-(benzo[d][1,3]dioxol-5-yl)ethyl)-3-benzyl-7-(2-cyclohexylethyl)-9-isobutyl-10-methyl-5,8,11,15-tetraoxo-2,3,4,5,6,7,8,9,10,11,12,13,14,15-tetradecahydronaphtho[2,3-p][1]oxa[4,7,10,14]tetraazacycloheptadecine-13-carboxamide] | 86 | 160
COc1cccc(CCNC(=O)[C@@H]2CC(=O)N(C)[C@@H](CC(C)C)C(=O)N(CCC3CCCCC3)CC(=O)N[C@H](Cc3ccccc3)COc3cc4ccccc4cc3C(=O)N2)c1 [Example 251, (3R,9S,13S)-3-benzyl-7-(2-cyclohexylethyl)-9-isobutyl-N-(3-methoxyphenethyl)-10-methyl-5,8,11,15-tetraoxo-2,3,4,5,6,7,8,9,10,11,12,13,14,15-tetradecahydronaphtho[2,3-p][1]oxa[4,7,10,14]tetraazacycloheptadecine-13-carboxamide] | 83 | 159
CCc1ccc(CCNC(=O)[C@@H]2CC(=O)N(C)[C@@H](CC(C)C)C(=O)N(C)CC(=O)N[C@H](Cc3ccccc3)COc3ccncc3C(=O)N2)cc1 [Example 252, (3R,9S,13S)-3-benzyl-N-(4-ethylphenethyl)-9-isobutyl-7,10-dimethyl-5,8,11,15-tetraoxo-2,3,4,5,6,7,8,9,10,11,12,13,14,15-tetradecahydropyrido[3,4-p][1]oxa[4,7,10,14]tetraazacycloheptadecine-13-carboxamide] | 888 | 111
CC(C)C[C@H]1C(=O)N(CCC2CCCCC2)CC(=O)N[C@H](Cc2ccccc2)COc2ccc(Cl)cc2C(=O)N[C@H](C(=O)NCCc2ccc3c(c2)OCO3)CC(=O)N1C [Example 253, (3R,9S,13S)-N-(2-(benzo[d][1,3]dioxol-5-yl)ethyl)-3-benzyl-17-chloro-7-(2-cyclohexylethyl)-9-isobutyl-10-methyl-5,8,11,15-tetraoxo-2,3,4,5,6,7,8,9,10,11,12,13,14,15-tetradecahydrobenzo[p][1]oxa[4,7,10,14]tetraazacycloheptadecine-13-carboxamide] | 88 | 136
COc1cccc(CCNC(=O)[C@@H]2CC(=O)N(C)[C@@H](CC(C)C)C(=O)N(CCC3CCCCC3)CC(=O)N[C@H](Cc3ccccc3)COc3ccc(Cl)cc3C(=O)N2)c1 [Example 254, (3R,9S,13S)-3-benzyl-17-chloro-7-(2-cyclohexylethyl)-9-isobutyl-N-(3-methoxyphenethyl)-10-methyl-5,8,11,15-tetraoxo-2,3,4,5,6,7,8,9,10,11,12,13,14,15-tetradecahydrobenzo[p][1]oxa[4,7,10,14]tetraazacycloheptadecine-13-carboxamide] | 102 | 152
COc1cc(OC)c2c(c1)OC[C@@H](Cc1ccccc1)NC(=O)CN(CCC1CCCCC1)C(=O)[C@H](CC(C)C)N(C)C(=O)C[C@@H](C(=O)NCCc1ccc3c(c1)OCO3)NC2=O [Example 255, (3R,9S,13S)-N-(2-(benzo[d][1,3]dioxol-5-yl)ethyl)-3-benzyl-7-(2-cyclohexylethyl)-9-isobutyl-16,18-dimethoxy-10-methyl-5,8,11,15-tetraoxo-2,3,4,5,6,7,8,9,10,11,12,13,14,15-tetradecahydrobenzo[p][1]oxa[4,7,10,14]tetraazacycloheptadecine-13-carboxamide] | 183 | 299
COc1cccc(CCNC(=O)[C@@H]2CC(=O)N(C)[C@@H](CC(C)C)C(=O)N(CCC3CCCCC3)CC(=O)N[C@H](Cc3ccccc3)COc3cc(OC)cc(OC)c3C(=O)N2)c1 [Example 256, (3R,9S,13S)-3-benzyl-7-(2-cyclohexylethyl)-9-isobutyl-16,18-dimethoxy-N-(3-methoxyphenethyl)-10-methyl-5,8,11,15-tetraoxo-2,3,4,5,6,7,8,9,10,11,12,13,14,15-tetradecahydrobenzo[p][1]oxa[4,7,10,14]tetraazacycloheptadecine-13-carboxamide] | 147 | 319
COc1cccc2c1C(=O)N[C@H](C(=O)NCCc1ccc3c(c1)OCO3)CC(=O)N(C)CC(=O)N(CCC1CCCCC1)CC(=O)N[C@H](Cc1ccccc1)CO2 [Example 257, (3R,13S)-N-(2-(benzo[d][1,3]dioxol-5-yl)ethyl)-3-benzyl-7-(2-cyclohexylethyl)-16-methoxy-10-methyl-5,8,11,15-tetraoxo-2,3,4,5,6,7,8,9,10,11,12,13,14,15-tetradecahydrobenzo[p][1]oxa[4,7,10,14]tetraazacycloheptadecine-13-carboxamide] | 249 | 116
